“Also recorded” adds a separate entry of the source. Like-named read-outs stand apart in the source and are kept apart here.
Assays:
U937.12 cells [1] = assay: HMGB1 relocation from nucleus to vesicles in LPS-challenged U937.12 cells (immunofluorescence); assay type: cell-based
Description: (§1) Fibroblasts and HeLa cells were cultured in Dulbecco's modified Eagle's medium (DMEM) supplemented with 10% fetal bovine serum (FBS, from Gibco), 100 IU/ml of penicillin and 100 μg/ml streptomycin, in 5% CO2 humidified atmosphere. HeLa cells and 3134 mouse fibroblasts were transfected by calcium phosphate co-precipitation. To express fluorescent proteins, 3×10^5 cells were plated in 6 cm dishes and were transiently transfected with 8 μg of the appropriate plasmid. Cells were observed 36 hours after transfection. […] About 24 hours after transfection, 3134 fibroblasts were treated for 3 hours with 10 ng/ml trichostatin A (TSA, Sigma) before fixing and imaging. Subclone 12[−] of U937 promoyelocitic cells, kindly provided by M. Alfano and G. Poli (HSR, Milano), was grown in RPMI medium (Gibco) supplemented with 10% FCS, L-glutamine, 100 U/ml penicillin 100 μg/ml streptomycin, exposed for 3 days to 0.1 μM vitamin D3 (Roche) to promote CD14 expression, and stimulated with 100 ng/ml LPS (Sigma catalogue #L4391) or with 10 ng/ml TSA for 3 hours. For the experiments with kinase inhibitors, cells were exposed to 1 μM U0126, 10 μM SB203580 or 30 μM SP600125 (all from Calbiochem) at the same time as LPS, and lasting for 3 hours. Primary human monocytes, purified from peripheral blood (a kind gift from M. Iannacone, HSR), were maintained in RPMI medium supplemented as described above, and were activated with 100 ng/ml LPS.
Cell cultured in LabTek II chambers (Nalgene) were directly fixed in 3.7% paraformaldehyde (PFA) in PHEM buffer (36.8 g/l PIPES, 13 g/l HEPES, 7.6 g/l EGTA, 1.99 g/l MgSO4, buffered to pH 7.0 with KOH) for 10 minutes at room temperature. After fixation, cells were washed with PBS and incubated for 3 minutes at 4° C. with HEPES-based permeabilization buffer containing 300 mM sucrose and 0.2% Triton X-100. Fifteen minutes of incubation in blocking solution (BlS, 0.2% BSA in PBS) followed. Primary antibodies were then diluted in BIS to the suitable final concentration and incubation was prolonged for 1 hour at room temperature. After 3 rinses with BlS, cells were incubated with secondary antibodies in BIS for one hour, washed three times with BlS, and then incubated with PBS containing 0.5 μg/ml Hoechst 33342. The polyclonal rabbit anti-HMGB1 was purchased from BD PharMingen (Torrey Pines, Calif.), and used at 1:1600 dilution. Goat polyclonal antibodies against rabbit IgG (H+L) conjugated to Alexa Fluor 594 (working dilution 1:1000) were purchased from Molecular Probes (Eugene, Oreg., USA).
The secretion of TNF-α, IL-1, IL-8, and PGE2 by LPS-stimulated monocytes can be blocked by inhibiting ERK phosphorylation (Scherle et al., 1998). […] U937.12 cells were exposed to 200 ng/ml LPS in the presence of 1 μM U0126 (a specific inhibitor of ERK phosphorylation), 30 μM SP600125 (a specific inhibitor of Jnk kinases) or 10 μM SB203580 (a specific inhibitor of the p38 kinases). Control cultures were not exposed to LPS, or exposed to LPS but no inhibitors.

human monocytes = assay: HMGB1 translocation to cytoplasmic vesicles in LPS-activated primary monocytes; assay type: cell-based; settings: cycloheximide; time scale about 16-20 hours
Description: as §1, with “Primary human monocytes, purified from peripheral blood (a kind gift from M. Iannacone, HSR), were maintained in RPMI medium supplemented as described above, and were activated with 100 ng/ml LPS.” left out

3T3 cells = assay: HMGB1 acetylation pattern by 2D gel electrophoresis and anti-HMGB1 blot after deacetylase inhibitors; assay type: cell-based, mouse; settings: for hyperacetylation of HMGB1: cell lines with low complexity of HMGB1 acetylation (3T3 mouse fibroblasts, HeLa cells, HEK cells)
Description: (C) Most cell lines contain 2 isoforms of HMGB1, and the protein can be hyperacetylated with TSA treatment. 3T3 cells were incubated for 6 hours in DMEM, or DMEM supplemented with 10 ng/ml TSA, then collected and lysed.
About 50 μg of purified HMGB1 or about 250 μg of total cellular protein were added to 350 μl of rehydration buffer (RB), containing 8 M urea, 2% CHAPS, 20 mM dithioerythritol (DTE), 0.8% IPG buffer (carrier ampholytes, pH 3-10 non-linear or pH 4-7 linear). Samples were applied on 18 cm polyacrylamide gel strips (pH range: 3-10 NL, or pH 4-7 L). Isoelectrophocusing (IEF) was performed in IPGphor (Pharmacia Biotech). IEF was stopped at 75000-90000 VoltHours. Second dimension runs were performed using a Protean II apparatus (Bio-Rad). After IEF, strips were soaked first in equilibration buffer (EB: 6 M urea, 3% SDS, 375 mM Tris pH 8.6, 30% glycerol, 2% DTE), then in EB containing 3% iodoacetamide (LAA) and traces of bromophenol blue (BBP). Strips were then applied onto 10%-12% polyacrylamide gels. Gels were run at 90 V for about 16 hours, and were then either silver stained or transferred onto nitrocellulose membranes (ECL, Amersham) in 25 mM Tris pH 7.5, 0.192 M glycine, 20% methanol.

3134 mouse fibroblasts = assay: HMGB1-GFP relocation to the cytoplasm in fibroblasts after TSA; assay type: cell-based; settings: 10 ng/ml TSA for 3 hours
Description: (§2) Fibroblasts and HeLa cells were cultured in Dulbecco's modified Eagle's medium (DMEM) supplemented with 10% fetal bovine serum (FBS, from Gibco), 100 IU/ml of penicillin and 100 μg/ml streptomycin, in 5% CO2 humidified atmosphere. HeLa cells and 3134 mouse fibroblasts were transfected by calcium phosphate co-precipitation. To express fluorescent proteins, 3×10^5 cells were plated in 6 cm dishes and were transiently transfected with 8 μg of the appropriate plasmid. Cells were observed 36 hours after transfection. The average amount of HMGB1-GFP in the cell population was between 1 and 3% of HMGB1 (as measured by immunoblotting with anti-HMGB1 antibodies). About 24 hours after transfection, 3134 fibroblasts were treated for 3 hours with 10 ng/ml trichostatin A (TSA, Sigma) before fixing and imaging. Subclone 12[−] of U937 promoyelocitic cells, kindly provided by M. Alfano and G. Poli (HSR, Milano), was grown in RPMI medium (Gibco) supplemented with 10% FCS, L-glutamine, 100 U/ml penicillin 100 μg/ml streptomycin, exposed for 3 days to 0.1 μM vitamin D3 (Roche) to promote CD14 expression, and stimulated with 100 ng/ml LPS (Sigma catalogue #L4391) or with 10 ng/ml TSA for 3 hours. For the experiments with kinase inhibitors, cells were exposed to 1 μM U0126, 10 μM SB203580 or 30 μM SP600125 (all from Calbiochem) at the same time as LPS, and lasting for 3 hours. […]

U937.12 cells [2] = assay: HMGB1 relocation in U937.12 cells treated with TSA without LPS (immunofluorescence); assay type: cell-based; settings: 10 ng/ml TSA for 3 hours, no LPS
Description: as §2

[3] = test system: HMGB1 transfer between human and mouse nuclei; assay: Heterokaryon assay: HMGB1 transfer from human to mouse nuclei; assay type: cell-based; settings: for HMGB1 transfer between human and mouse nuclei in heterokaryons: 150 nM leptomycin B, 4 hours at 37° C. with cycloheximide
From the text: (A) Heterokaryons were formed by fusing HMGB1-expressing HeLa cells (human) and Hmgb1−/− mouse embryonic fibroblasts. Human cytokeratin and HMGB1 were stained red and green, respectively, with specific antibodies; nuclei were stained blue with DAPI (or Hoechst). Cells with human cytokeratin staining and two nuclei, one of which with bright DAPI-positive heterochromatic spots characteristic of mouse cells, were considered heterokaryons.
Heterokaryons were produced and scored as in panel A; 150 heterokaryons were evaluated for HMGB1 transfer into recipient mouse nuclei for each of the 2 classes (leptomycin and control). The 50% level is equivalent to complete equilibration.
HeLa cells were plated on glass coverslips in a 6-well dish (100 000 cells/dish). After 16 hours, 200 000 Hmgb1−/− mouse fibroblasts were plated on the same coverslips. Following a 3-hour incubation in the presence of 100 μg/ml cycloheximide, the cells were washed with PBS and treated with 100 μl of prewarmed 50% PEG-6000 in PBS for 1 min. After 3 washes with PBS, the cells were incubated with DMEM containing 100 μg/ml cycloheximide for 4 hours, and then fixed with 4% paraformaldehyde. Immunofluorescence was performed using anti-human cytokeratin (Santa Cruz) and anti-HMGB1 antibodies, and chromatin was visualized by DAPI staining. When indicated, 150 nM leptomycin B (a kind gift of Barbara Wolff, Novartis, Vienna) was added to the medium together with cycloheximide.

CRM1 exportin = CRM1 exportin (Homo sapiens, UniProt O14980); assay: Pull down assay with labeled CRM1; settings: 0.4 μM (400 nM) leptomycin B in the binding buffer
Sequence of CRM1 exportin (O14980 whole entry): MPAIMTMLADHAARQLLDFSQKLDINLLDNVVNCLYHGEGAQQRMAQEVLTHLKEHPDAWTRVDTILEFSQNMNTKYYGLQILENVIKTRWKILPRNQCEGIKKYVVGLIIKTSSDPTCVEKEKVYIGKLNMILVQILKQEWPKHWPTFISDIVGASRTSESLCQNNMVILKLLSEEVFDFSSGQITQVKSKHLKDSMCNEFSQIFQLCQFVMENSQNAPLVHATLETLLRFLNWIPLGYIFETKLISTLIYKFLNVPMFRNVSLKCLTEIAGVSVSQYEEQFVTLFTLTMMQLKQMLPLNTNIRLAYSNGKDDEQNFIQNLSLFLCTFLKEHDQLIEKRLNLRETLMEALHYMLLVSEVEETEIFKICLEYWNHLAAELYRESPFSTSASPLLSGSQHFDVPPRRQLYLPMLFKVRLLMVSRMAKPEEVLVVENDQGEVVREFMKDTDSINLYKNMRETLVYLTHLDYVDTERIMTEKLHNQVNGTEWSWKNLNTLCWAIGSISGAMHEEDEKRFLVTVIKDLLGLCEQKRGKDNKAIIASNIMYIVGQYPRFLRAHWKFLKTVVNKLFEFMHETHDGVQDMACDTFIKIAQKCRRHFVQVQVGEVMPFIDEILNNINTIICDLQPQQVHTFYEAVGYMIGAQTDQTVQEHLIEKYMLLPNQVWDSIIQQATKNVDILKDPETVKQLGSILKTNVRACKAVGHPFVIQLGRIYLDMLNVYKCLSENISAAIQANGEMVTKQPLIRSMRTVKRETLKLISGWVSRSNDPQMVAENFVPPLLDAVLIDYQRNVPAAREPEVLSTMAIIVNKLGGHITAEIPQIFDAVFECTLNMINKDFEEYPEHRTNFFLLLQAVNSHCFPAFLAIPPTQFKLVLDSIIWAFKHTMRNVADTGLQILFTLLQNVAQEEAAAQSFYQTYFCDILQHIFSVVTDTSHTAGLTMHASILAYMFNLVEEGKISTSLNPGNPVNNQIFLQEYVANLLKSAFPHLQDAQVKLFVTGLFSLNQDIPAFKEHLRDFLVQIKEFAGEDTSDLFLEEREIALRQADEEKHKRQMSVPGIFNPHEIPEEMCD
From the text: Labeled CRM1 protein was mixed with beads bearing GST-NS2 immobilized onto Glutathione Sepharose or BSA, tailless HMGB1 (boxA+B) or individual boxes covalently linked to Sepharose. Aliquots representing the input material (In), the fourth wash (W4), the material remaining bound to beads after 5 washes (bound, B), and the unbound material (output, O) were electrophoresed and autoradiographed.
CRM1 protein was in vitro transcribed-translated with the TnT Coupled Reticulocyte Lysate System (Promega) following the manifacturer's protocol, using pSGCRM1 plasmid as template. Seven μl of freshly made [^35S]-Met labeled CRM1 were incubated in 15 μl RAN Buffer (50 mM Tris-HCl pH 7.5, 200 mM NaCl, 2 mM MgCl2, 10% glycerol), 5 μl of 6×CRM1 buffer (20 mM HEPES-KOH pH 7.5, 80 mM CH3COOK, 4 mM Mg (CH3COO)2, 250 mM sucrose, 2.5 mM DTT), 1 mg/ml BSA, 400 nM Leptomycin B where indicated, and approximately 10 μl of beads bearing immobilized GST-NS2, BSA, recombinant tailless HMGB1 (HMGB1ΔC, Muller et al., 2001b), boxA, or boxB. GST-NS2 was coupled to Gluthatione Sepharose (Amersham), the other proteins were covalently cross-linked to Activated Sepharose-CH (Amersham). The incubation was for one hour at 4° C. on a rotating wheel. The beads were pelleted by centrifugation, supernatants were dried in Savant. […]

C[C@@H]1C[C@@H]([C@H](O)CC2CC(=O)NC(=O)C2)C(=O)[C@@H](C)C1 [cycloheximide]
HMGB1 translocation after LPS (U937.12 cells [1]; 10 μM cycloheximide starting 20 minutes prior to LPS addition): does not block HMGB1 translocation
HMGB1 translocation to vesicles when LPS is added (U937.12 cells [1]; 10 μg/ml cycloheximide): still translocate HMGB1 to vesicles
HMGB1 translocation to cytoplasmic vesicles after LPS (human monocytes): not inhibited

CCCC(=O)[O-].[Na+] [sodium butyrate]
hyperacetylation of HMGB1 (3T3 cells): hyperacetylation could be obtained

N#CC(=C(/N)Sc1ccccc1N)/C(C#N)=C(\N)Sc1ccccc1N [U0126]
HMGB1 relocation to vesicles after LPS (U937.12 cells [1]): blocks it completely; also recorded: inhibition of HMGB1 translocation; also recorded: almost completely blocked
HMGB1 translocation after LPS stimulation after removal of the inhibitor (U937.12 cells [1]): restored

CC(/C=C/C(=O)NO)=C\[C@@H](C)C(=O)c1ccc(N(C)C)cc1 [TSA, trichostatin A]
relocation of HMGB1-GFP to the cytoplasm (3134 mouse fibroblasts): causes a significant relocation of HMGB1-GFP to the cytoplasm; also recorded: sufficient to relocate a significant amount of HMGB1 to the cytoplasm
HMGB1 isoform spots on 2D gel (hyperacetylation) (3T3 cells; 3T3 cells, 10 ng/ml TSA, 6 hours, control 2 spots): several HMGB1 spots appeared
hyperacetylation of HMGB1 (3T3 cells): hyperacetylation could be obtained
cytoplasmic expansion (U937.12 cells [2]): do not show cytoplasmic expansion
relocation of HMGB1 to cytoplasmic vesicles (U937.12 cells [2]): a fraction of HMGB1 is relocalized to cytoplasmic vesicles; also recorded: a fraction of HMGB1 started to shift to cytoplasmic vesicles

CCC(=C/[C@H](C)C/C=C/C(C)=C/[C@@H](C)C(=O)[C@@H](C)[C@H](O)[C@@H](C)C/C(C)=C/C(=O)O)/C=C/[C@@H]1OC(=O)C=C[C@@H]1C [leptomycin B]
HMGB1 transfer between human and mouse nuclei in heterokaryons ([3]; listed as Leptomycin B): substantially reduces, but does not abolish
HMGB1 transfer between human and mouse nuclei in heterokaryons ([3]; listed as leptomycin): strongly reduced
HMGB1 migrated to the mouse nucleus ([3]; vast majority of leptomycin-treated heterokaryons, after 4 hours, 50% level = complete equilibration): less than 5%
HMGB1 relocation to vesicles after LPS (U937.12 cells [1]; 150 nM leptomycin together with LPS, 3 hours): partially blocked
HMGB1 relocation to vesicles after LPS (U937.12 cells [1]; 150 nM leptomycin together with LPS, 3 hours, listed as leptomycin): blocks HMGB1 relocation almost completely
binding of labeled CRM1 to GST-NS2 and the HMG boxes (BoxA+B) (CRM1 exportin): did not bind
binding of labeled CRM1 to GST-NS2 and the HMG boxes (BoxA+B) (CRM1 exportin; listed as leptomicin B): prevents binding of CRM1

C[S+]([O-])c1ccc(-c2nc(-c3ccncc3)c(-c3ccc(F)cc3)[nH]2)cc1 (centres unmarked) [SB203580]
HMGB1 relocation to vesicles after LPS (U937.12 cells [1]; 10 μM SB203580 together with LPS, 3 hours): has no effect; also recorded: substantial

C[C@@H]1NC(=O)[C@H]2CCCN2C(=O)[C@H](CCCCCC(=O)[C@@H]2CO2)NC(=O)[C@@H](C)NC1=O [HC-toxin]
hyperacetylation of HMGB1 (3T3 cells): hyperacetylation could be obtained

From patent US20060111287A1, “Acetylated protein” (priority 2002, published 2006)
